Laboratory results from US6303596A, “Use of taurolidine for treatment of leukemias” (priority 2000, dated 2001).

Columns and labels:
[1] = tested on: MM6 cells; assay: growth rate after taurolidine treatment, MM6; assay type: cell-based, human
Procedure: FIG. 4A and FIG. 4B are graphs depicting cell viability and growth rates following taurolidine treatment as determined by assay procedures. MM6 cells were treated with taurolidine as described in FIG. 3. After aliquots were collected for the lactate dehydrogenase (LDH) assay, the remainder of the culture was rinsed in Hank's balanced salt solution (HBSS) and resuspended in RPMI+10% BCS without taurolidine. Counts of trypan blue-negative cells represented in FIG. 4A and total cell number represented in FIG. 4B were recorded daily thereafter (with the measurement at Day 1 being made immediately after the four hour taurolidine treatment). […]
FIGS. 5A and 5B depict cell viability and growth rates for MM6 cell line following taurolidine treatment, in terms of % trypan blue negative cells and % cell number, respectively. […] Counts of trypan blue-negative cells (FIG. 5A), and total cell number (FIG. 5B), were recorded daily thereafter (with the measurement at Day 1 being made immediately after the 4 hour taurolidine treatment). […] Doubling times were determined under each condition, and expressed as a percentage of the rate of doubling of untreated cells. […]
In these experiments, integrity of cell membranes following taurolidine treatment was assessed by exclusion of trypan blue and by measuring the release of LDH in MM6, K-562, HL-60, and REH cells. […]

[2] = tested on: TNFα; assay: LPS-induced TNFα expression/secretion by MM6 cells, ELISA; assay type: cell-based, human; conditions: 4 h
Procedure: FIG. 3A and FIG. 3B are graphs depicting taurolidine inhibition of LPS-induced alpha […] (TNFα) expression by monocytic cells as determined by assay procedures. FIG. 3A represents MM6 cells; FIG. 3B represents PBMC. The cells were induced with LPS (hatched bars: 100 ng/ml LPS in RPMI+10% BCS; solid bars: 10 ng/ml in AIM-V+0.01% BCS) in the presence of varying concentrations of taurolidine. After four hours, cell supernatants were collected for TNFα ELISA. Data are expressed as percent of TNFα levels measured in cell cultures treated with LPS alone (no taurolidine or vehicle). Experiments were performed with duplicate samples and were repeated at least three times. Values shown in FIG. 3A are from a representative experiment. Values shown in FIG. 3B are mean±SEM of three experiments.
All cells were cultured in a 5% CO2 atmosphere at 37° C. MM6 cells were grown in RPMI supplemented with 10% BCS, 2 mM L-glutamine, and 50 μg/ml gentamicin (RPMI+10% BCS). In some experiments, MM6 cells were rinsed once with HBSS without Ca^++ or Mg^++ and once with AIM-V before finally being resuspended in AIM-V supplemented with 0.01% BCS (AIM-V+0.01% BCS). […] AIM-V was supplemented with a low amount of BCS (0.01%) in order to provide a source of LPS-binding protein, which enhances the response of monocytic cells to LPS. Ulevitch, R. J. and Tobias, P. S., "Recognition of endotoxin by cells leading to transmembrne signaling," Curr Opin Immunol 6:125 (1994). HL-60, REH, and Jurkat were cultured in RPMI supplemented with 10% heat inactivated fetal bovine serum (FBS), 2 mM L-glutamine, and 50 μg/ml gentamicin. ECV304 were cultured in M199 supplemented with 10% FBS, mM L-glutamine, and 50 μg/ml gentamicin. GM5387 was cultured in MEM supplemented with 20% FBS, 2 mM L-glutamine, and 50 μg/ml gentamicin.
For induction of TF or TNFα expression, MM6 cells or PBMC were cultured either in RPMI supplemented with 10% BCS or in AIM-V+0.01% BCS, and stimulated by adding LPS to final concentrations of 10 to 100 ng/ml. […]

## O=S1(=O)CCN(CN2CCS(=O)(=O)NC2)CN1 [taurolidine, 4,4'-methylenebis(perhydro-1,2,4-thiadiazin 1,1-dioxide)]
[1]; MM6, 25 μg/ml taurolidine for 4 h
  growth rate after return to growth medium: growth rates similar to that observed with untreated cells
[1]; MM6, 50 μg/ml taurolidine for 4 h
  growth after return to growth medium: failed to grow
[2]; MM6, intermediate concentrations, particularly 25 μg/ml taurolidine
  effect on LPS-induced TNFα secretion: markedly stimulating TNFα secretion
[2]; MM6, taurolidine 75 μg/ml
  inhibition of LPS-induced TNFα secretion: maximal inhibition
